The text below walks through data of ChEMBL document CHEMBL4819070, “Synthesis and biological evaluation of 2-(4-alkoxy-3-cyano)phenylpyrimidine derivatives with 4-amino or 4-hydroxy as a pharmacophore element binding with xanthine oxidase active site” (Bioorg Med Chem, 2021).

For series [1], the target named is T1, Xanthine dehydrogenase/oxidase (Bos taurus, UniProt P80457). The series is described as follows: Inhibition of bovine milk xanthine oxidase assessed as reduction in uric acid formation using xanthine as substrate preincubated for 15 mins followed by substrate addition measured for every 30 sec by spectrophotometric analysis.
The test system of series [2] is Rattus norvegicus. The series is described as follows: Hypouricemic activity in Sprague-Dawley rat model of Potassium oxonate-induced acute hyperuricemia assessed as decrease in serum uric acid at 10 mg/kg, IG administered after potassium oxonate treatment and measured upto 8 hrs. The note with it: time hrs <=8. Type of series: functional, organism-based.
The target of series [3] is T1, Xanthine dehydrogenase/oxidase. The series is described as follows: Inhibition of bovine milk xanthine oxidase assessed as decrease in Vmax at 0.01 to 0.06 uM by Lineweaver-Burk plot analysis. The settings on record: cattle, dose 0.01-0.06 µM.
Series [4] deals with Rattus norvegicus. The series can be described thus: Hypouricemic activity in Sprague-Dawley rat model of Potassium oxonate-induced acute hyperuricemia assessed as decrease in serum uric acid AUC (1 to 8 hrs) at 30 to 90 mg/kg, IG administered after potassium oxonate treatment and measured at 1 hr. Type of series: functional, organism-based. The settings on record: dose 30-90 mg/kg.

Series [5] deals with Rattus norvegicus. The series can be described thus: Hypouricemic activity in Sprague-Dawley rat model of Potassium oxonate-induced acute hyperuricemia assessed as decrease in serum uric acid at 30 to 90 mg/kg, IG administered after potassium oxonate treatment and measured at 1 hr. The note with it: dose 30-90 mg/kg. Type of series: functional, organism-based.
Series [6] has as its target T1, Xanthine dehydrogenase/oxidase. The series can be described thus: Inhibition of bovine milk xanthine oxidase assessed as increase in Km at 0.01 to 0.06 uM by Lineweaver-Burk plot analysis. The settings on record: cattle, dose 0.01-0.06 µM.
Series [7] shares this target. The series is described as follows: Mixed type inhibition of bovine milk xanthine oxidase assessed as inhibitory constant using xanthine as substrate preincubated for 15 mins followed by substrate addition measured for every 30 sec by spectrophotometric analysis.
Series [8] shares this target. The series is described as follows: Inhibition of bovine milk xanthine oxidase assessed as reduction in uric acid formation at 10 uM using xanthine as substrate preincubated for 15 mins followed by substrate addition measured for every 30 sec by spectrophotometric analysis relative to control. The settings on record: cattle, 0.5 min.

Active and inactive are the calls of the source. The calls are words filed in the database; no cut-off is given here.

T1 sequence (P80457 whole entry): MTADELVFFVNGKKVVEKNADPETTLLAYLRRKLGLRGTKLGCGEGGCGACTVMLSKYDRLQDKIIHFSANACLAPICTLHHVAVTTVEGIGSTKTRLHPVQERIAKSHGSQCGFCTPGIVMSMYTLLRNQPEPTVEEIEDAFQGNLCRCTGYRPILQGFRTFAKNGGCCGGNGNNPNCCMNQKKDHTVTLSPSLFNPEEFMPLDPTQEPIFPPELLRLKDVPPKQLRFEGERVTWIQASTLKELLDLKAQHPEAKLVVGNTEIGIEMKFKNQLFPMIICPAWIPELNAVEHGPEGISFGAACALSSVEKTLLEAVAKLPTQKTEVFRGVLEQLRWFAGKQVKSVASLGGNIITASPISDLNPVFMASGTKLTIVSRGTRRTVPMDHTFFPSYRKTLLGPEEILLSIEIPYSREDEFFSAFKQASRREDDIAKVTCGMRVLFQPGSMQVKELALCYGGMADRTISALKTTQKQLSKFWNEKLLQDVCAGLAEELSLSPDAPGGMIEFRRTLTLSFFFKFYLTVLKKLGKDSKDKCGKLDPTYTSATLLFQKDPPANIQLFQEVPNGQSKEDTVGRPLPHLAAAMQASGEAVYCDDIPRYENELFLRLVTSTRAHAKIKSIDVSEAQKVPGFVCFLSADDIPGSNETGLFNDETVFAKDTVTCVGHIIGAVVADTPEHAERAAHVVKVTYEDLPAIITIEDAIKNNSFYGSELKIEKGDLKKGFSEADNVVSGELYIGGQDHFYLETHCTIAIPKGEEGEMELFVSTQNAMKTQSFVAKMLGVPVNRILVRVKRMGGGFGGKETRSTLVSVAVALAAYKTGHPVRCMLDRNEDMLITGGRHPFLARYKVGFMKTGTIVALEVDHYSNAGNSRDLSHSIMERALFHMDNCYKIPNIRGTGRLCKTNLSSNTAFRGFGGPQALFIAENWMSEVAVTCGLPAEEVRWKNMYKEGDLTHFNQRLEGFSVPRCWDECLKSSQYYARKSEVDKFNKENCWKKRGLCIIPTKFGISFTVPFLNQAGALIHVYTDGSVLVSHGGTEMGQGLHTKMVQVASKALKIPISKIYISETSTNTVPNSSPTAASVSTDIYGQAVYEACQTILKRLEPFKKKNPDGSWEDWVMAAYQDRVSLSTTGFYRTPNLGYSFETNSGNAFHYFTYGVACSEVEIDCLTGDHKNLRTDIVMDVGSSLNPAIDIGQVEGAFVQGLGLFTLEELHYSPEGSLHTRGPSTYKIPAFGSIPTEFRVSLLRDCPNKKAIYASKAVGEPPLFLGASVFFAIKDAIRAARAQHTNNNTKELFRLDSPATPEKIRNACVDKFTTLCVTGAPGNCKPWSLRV

Take `N#Cc1cc(-c2nc(N)cc(O)n2)ccc1OCC1CCCCC1`: the IC50 (as a rule, the concentration needed to halve the response being measured) in series [1] was found to be 0.275 µM.

In the case of `COc1ccc(-c2nccc(O)n2)cc1C#N`, the half-inhibitory concentration (IC50) in series [1] stood at 0.179 µM. Turning to `CC(C)=COc1ccc(-c2nccc(O)n2)cc1C#N`, the half-maximal inhibitory concentration (IC50) in series [1] was determined as 0.055 µM. Same read-out and setting: to `CC(C)COc1ccc(-c2ncccn2)cc1C#N` belongs 1.61 µM; to `CC(C)COc1ccc(-c2nc(N)cc(O)n2)cc1C#N`, 0.13 µM; to `N#Cc1cc(-c2nccc(N)n2)ccc1OCc1ccccc1`, 0.347 µM. The same measure, in the same setting: for `N#Cc1cc(-c2nccc(O)n2)ccc1OCc1ccc(F)cc1` the value was 0.075 µM; for `N#Cc1cc(-c2ncccn2)ccc1OCC1CCCCC1`, 4.45 µM. For `COc1ccc(COc2ccc(-c3nccc(O)n3)cc2C#N)cc1`, the IC50 in series [1] amounted to 0.193 µM. On to `CC(C)CCOc1ccc(-c2nccc(O)n2)cc1C#N`, for which the outcome in the series on Rattus norvegicus [2] was inactive. The “inhibition (INH)” value in series [3] and in series [6] was “Active” throughout. Also, the half-inhibitory concentration (IC50) in series [1] came to 0.046 µM. Moreover, the outcome in the series with Rattus norvegicus [4] and in the series with Rattus norvegicus [5] was Active. The Ki (in general, a measure of affinity in units of concentration, obtained from inhibition or displacement) in series [7] turned out to be 0.018 µM. As to `N#Cc1cc(-c2nccc(O)n2)ccc1OCc1cccc(F)c1`, the IC50 in series [1] was 0.077 µM.

On to `N#Cc1cc(-c2nccc(O)n2)ccc1OCC1CC1`, for which the concentration for half-maximal inhibition (IC50) in series [1] stood at 0.093 µM. For the compound `N#Cc1cc(-c2nccc(O)n2)ccc1OCc1ccc(Br)cc1`, the half-inhibitory concentration (IC50) in series [1] came to 0.095 µM.

As for `N#Cc1cc(-c2nccc(O)n2)ccc1OCC1CCCCC1`, the half-maximal inhibitory concentration (IC50) in series [1] came to 0.073 µM. On to `N#Cc1cc(-c2nccc(O)n2)ccc1OCc1ccccc1F`, for which, in series [1], the concentration for half-maximal inhibition (IC50) turned out to be 0.06 µM. The same measure, in the same setting: for `N#Cc1cc(-c2nccc(O)n2)ccc1OCc1ccccc1` the value was 0.066 µM. The same measure, in the same setting: for `Cc1ccc(COc2ccc(-c3nccc(O)n3)cc2C#N)cc1` the value was 0.079 µM.

Regarding `N#Cc1cc(-c2nccc(O)n2)ccc1OCc1ccc(Cl)cc1`, the IC50 in series [1] stood at 0.148 µM. On to `CC(C)(C)c1ccc(COc2ccc(-c3nccc(O)n3)cc2C#N)cc1`, for which, in series [1], the IC50 is 0.282 µM. For `N#Cc1cc(-c2nccc(O)n2)ccc1O`, in series [8], the inhibition (as a rule, the drop in the measured response relative to a control, in per cent) at 10 µM is < 50%. For `CC(C)COc1ccc(-c2nccc(N)n2)cc1C#N`, the half-inhibitory concentration (IC50) in series [1] worked out at 0.262 µM. Take `N#Cc1cc(-c2ncccn2)ccc1OCc1ccccc1`: the concentration for half-maximal inhibition (IC50) in series [1] stood at 1.95 µM.

In the case of `N#Cc1cc(-c2nc(N)cc(O)n2)ccc1OCc1ccccc1`, the IC50 in series [1] came to 0.209 µM. On the same count and under the same terms, to `CC(C)COc1ccc(-c2nccc(O)n2)cc1C#N` belongs 0.069 µM; to `N#Cc1cc(-c2nccc(N)n2)ccc1OCC1CCCCC1`, 0.539 µM; to `CC(C)Oc1ccc(-c2nccc(O)n2)cc1C#N`, 0.074 µM.
